Laboratory results from patent US20090099214A1, “Organic Compounds” (Novartis AG, priority 2006, published 2009).
Structures can show the parent of a compound that is named as a salt.

Biological target: adenosine A2a receptor (Homo sapiens, UniProt P29274)
Assay: adenosine A2a receptor agonist test (method of Murphree et al / Hannon et al)
Type: binding
Procedure: Compounds of formula I and their pharmaceutically acceptable salts are useful as pharmaceuticals. In particular, they activate the adenosine A2a receptor activation, i.e. they act as A2a receptor agonists.
For example, the compounds of Examples 7, 8, 17, 19, and 38 have Ki values of 0.003, 0.002, 0.011, 0.008, and 0.007 μM respectively.

Chain of adenosine A2a receptor (P29274 whole entry): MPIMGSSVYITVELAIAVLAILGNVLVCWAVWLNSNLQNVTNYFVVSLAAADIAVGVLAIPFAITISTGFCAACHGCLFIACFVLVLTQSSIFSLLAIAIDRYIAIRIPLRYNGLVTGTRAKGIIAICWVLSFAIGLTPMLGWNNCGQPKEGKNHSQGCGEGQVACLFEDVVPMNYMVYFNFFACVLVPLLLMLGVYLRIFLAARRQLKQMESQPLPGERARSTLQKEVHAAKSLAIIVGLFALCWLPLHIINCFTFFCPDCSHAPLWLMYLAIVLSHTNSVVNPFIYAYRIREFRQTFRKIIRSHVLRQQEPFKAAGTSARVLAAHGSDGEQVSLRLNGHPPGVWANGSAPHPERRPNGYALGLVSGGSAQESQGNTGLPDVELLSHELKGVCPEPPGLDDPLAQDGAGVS

Row | SMILES | Ki [nM]
1 | CCC(=O)N[C@H]1C[C@@H](n2cnc3c(NCCc4ccccc4-c4ccccc4)nc(N4CC[C@@H](NC(=O)N[C@@H]5CCNC5)C4)nc32)[C@H](O)[C@@H]1O [Example 17, N-((1S,2R,3S,4R)-4-{6-(2-biphenyl-2-yl-ethylamino)-2-[(R)-3-((R)-3-pyrrolidin-3-ylureido)-pyrrolidin-1-yl]-purin-9-yl}-2,3-dihydroxy-cyclopentyl)-propionamide trifluoroacetate] | 11
2 | CCC(=O)N[C@H]1C[C@@H](n2cnc3c(NCC(c4ccc(OC)c(OC)c4)c4ccc(OC)c(OC)c4)nc(N4CC[C@@H](NC(=O)N[C@@H]5CCNC5)C4)nc32)[C@H](O)[C@@H]1O [Example 19, N-((1S,2R,3S,4R)-4-{6-[2,2-bis-(3,4-dimethoxy-phenyl)-ethylamino]-2-[(R)-3-((R)-3-pyrrolidin-3-ylureido)-pyrrolidin-1-yl]-purin-9-yl}-2,3-dihydroxy-cyclopentyl)-propionamide trifluoroacetate] | 8

Stronger by Ki, values ahead:

Row | Ki [nM] | SMILES
3 | 7 | CCC(=O)N[C@H]1C[C@@H](n2cnc3c(NCC(c4ccccc4)c4ccc(F)cc4)nc(NC4CCC(N)CC4)nc32)[C@H](O)[C@@H]1O (stereo partly drawn) [Example 38, N-((1S,2R,3S,4R)-4-{2-(4-Amino-cyclohexylamino)-6-[2-(4-fluoro-phenyl)-2-phenyl-ethylamino]-purin-9-yl}-2,3-dihydroxy-cyclopentyl)-propionamide trifluoroacetate]
4 | 3 | CCC(=O)N[C@H]1C[C@@H](n2cnc3c(NCC(c4ccc(OC)cc4)c4ccc(OC)cc4)nc(N4CC[C@@H](NC(=O)N[C@@H]5CCNC5)C4)nc32)[C@H](O)[C@@H]1O [Example 7, N-((1S,2R,3S,4R)-4-{6-[2,2-Bis-(4-methoxy-phenyl)-ethylamino]-2-[(R)-3-((R)-3-pyrrolidin-3-ylureido)-pyrrolidin-1-yl]-purin-9-yl}-2,3-dihydroxy-cyclopentyl)-propionamide trifluoroacetate]
5 | 2 | CCC(=O)N[C@H]1C[C@@H](n2cnc3c(NCC(c4ccccc4)c4ccc(F)cc4)nc(N4CC[C@@H](NC(=O)N[C@@H]5CCNC5)C4)nc32)[C@H](O)[C@@H]1O (stereo partly drawn) [Example 8, N-((1S,2R,3S,4R)-4-{6-[2-(4-fluoro-phenyl)-2-phenyl-ethylamino]-2-[(R)-3-((R)-3-pyrrolidin-3-ylureido)-pyrrolidin-1-yl]-purin-9-yl}-2,3-dihydroxy-cyclopentyl)-propionamide trifluoroacetate]
